Measured values reported in US5242946A, “Treating herpes Viral infections” (Bio-Mega, Inc., priority 1988, dated 1993).

What was measured:
[1] = target: HSV-1 ribonucleotide reductase (Human alphaherpesvirus 1 strain 17, UniProt P08543+P10224); assay: Inhibition of HSV-1 ribonucleotide reductase (reduction of CDP); format: biochemical, herpes simplex virus (type 1), strain F; details: for selective inhibition of the viral ribonucleotide reductase over the cellular ribonucleotide reductase: HSV-1 versus hamster 96-V-2(600) ribonucleotide reductase
[2] = target: T1, Hamster 96-V-2(600) ribonucleotide reductase (Cricetulus griseus, UniProt G3I2K8+G3I3B7); assay: Inhibition of hamster 96-V-2(600) ribonucleotide reductase (reduction of CDP); format: biochemical, Chinese hamster; details: partially purified enzyme 40 μg, in the presence of adenosine triphosphate (4 mM) and magnesium chloride (11.5 mM)
T1 construct: overproducing strain; endogenous in cells; host or cells: 96-V-2(600), overproducing strain of a Chinese hamster lung cell line (partially purified)
Description: Hamster 96-V-2(600) ribonucleotide reductase (partially purified) was obtained from an overproducting strain of a Chinese hamster lung cell line as described by W. H. Lewis and P. R. Scinivasan, Mol. Cell Biol., 3, 1053 (1983).
Samples of the HSV-1 ribonucleotide reductase (65 μg with a specific activity of 26 units per mg) were mixed with increasing concentrations of the test compound, i.e. the naphthalene noted in the title of this example, in a series of tubes. Ribonucleotide reductase activity was assayed by monitoring the reduction of cytidine diphosphate (CDP) as described by Cohen et al., supra. The standard reaction mixture, in a final volume of 60 μl, contained: 50 mM, N-2-hydroxyethylpiperazine-N'-2-ethanesulfonic acid (pH 7.8); 4 mM NaF, 30 mM DL-dithiothreitol (DTT); 1 mM bacitracin, 54 μM CDP and 0.25 μCi of [^3 H]CDP. After 30 minutes of incubation at 37° C., the reaction was stopped by immersing the tube in boiling water for 4 minutes. The precipitate was removed by centrifugation. Nucleotides in the supernatant were converted to nucleosides by enzymatic hydrolysis. The deoxyribonucleosides were subsequently separated from the ribonucleosides by ascending polyethyleneimine-celulose chromatography. […] The results, shown in FIG. 1, are expressed as a percentage of the activity obtained in the controls.

HSV-1 ribonucleotide reductase, sequence (P10224 whole entry): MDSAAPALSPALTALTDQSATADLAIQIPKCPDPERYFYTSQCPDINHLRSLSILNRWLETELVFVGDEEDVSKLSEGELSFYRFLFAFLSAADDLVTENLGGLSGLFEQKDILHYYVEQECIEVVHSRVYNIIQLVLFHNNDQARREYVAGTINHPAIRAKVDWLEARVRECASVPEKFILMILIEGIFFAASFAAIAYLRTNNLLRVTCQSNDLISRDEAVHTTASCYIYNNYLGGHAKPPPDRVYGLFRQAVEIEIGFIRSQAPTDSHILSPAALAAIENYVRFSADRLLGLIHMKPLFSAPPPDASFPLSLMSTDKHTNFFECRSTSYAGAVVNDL
HSV-1 ribonucleotide reductase, sequence (P08543 whole entry): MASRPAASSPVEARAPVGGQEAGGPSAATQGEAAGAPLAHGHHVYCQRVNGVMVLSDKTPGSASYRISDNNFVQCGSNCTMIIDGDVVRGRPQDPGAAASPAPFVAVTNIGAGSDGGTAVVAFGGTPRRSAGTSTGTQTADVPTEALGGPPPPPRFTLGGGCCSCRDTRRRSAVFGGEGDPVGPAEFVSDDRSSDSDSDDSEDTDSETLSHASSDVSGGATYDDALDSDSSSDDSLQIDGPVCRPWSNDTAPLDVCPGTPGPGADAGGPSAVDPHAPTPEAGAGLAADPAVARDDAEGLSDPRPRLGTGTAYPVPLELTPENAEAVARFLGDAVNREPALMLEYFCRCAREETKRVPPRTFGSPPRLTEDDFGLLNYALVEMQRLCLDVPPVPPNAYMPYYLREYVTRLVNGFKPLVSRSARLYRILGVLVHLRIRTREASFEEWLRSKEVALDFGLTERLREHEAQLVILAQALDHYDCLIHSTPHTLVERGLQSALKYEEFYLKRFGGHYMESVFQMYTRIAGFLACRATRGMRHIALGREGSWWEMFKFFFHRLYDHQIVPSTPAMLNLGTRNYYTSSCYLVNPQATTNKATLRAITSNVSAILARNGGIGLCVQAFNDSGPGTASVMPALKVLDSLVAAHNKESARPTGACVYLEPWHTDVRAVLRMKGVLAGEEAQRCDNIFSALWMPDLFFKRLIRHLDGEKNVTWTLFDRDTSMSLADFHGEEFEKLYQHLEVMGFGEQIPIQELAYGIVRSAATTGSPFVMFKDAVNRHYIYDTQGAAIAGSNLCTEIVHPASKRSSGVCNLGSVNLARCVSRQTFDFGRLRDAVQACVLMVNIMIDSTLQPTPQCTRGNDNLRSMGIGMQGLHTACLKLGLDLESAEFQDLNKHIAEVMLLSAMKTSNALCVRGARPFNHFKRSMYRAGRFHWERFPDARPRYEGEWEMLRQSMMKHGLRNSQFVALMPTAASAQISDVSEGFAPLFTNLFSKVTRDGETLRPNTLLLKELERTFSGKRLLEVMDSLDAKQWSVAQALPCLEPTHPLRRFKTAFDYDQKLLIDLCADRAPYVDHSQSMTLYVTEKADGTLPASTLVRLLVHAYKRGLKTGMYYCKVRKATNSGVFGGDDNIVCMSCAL
T1 sequence (G3I3B7 entry or part of it): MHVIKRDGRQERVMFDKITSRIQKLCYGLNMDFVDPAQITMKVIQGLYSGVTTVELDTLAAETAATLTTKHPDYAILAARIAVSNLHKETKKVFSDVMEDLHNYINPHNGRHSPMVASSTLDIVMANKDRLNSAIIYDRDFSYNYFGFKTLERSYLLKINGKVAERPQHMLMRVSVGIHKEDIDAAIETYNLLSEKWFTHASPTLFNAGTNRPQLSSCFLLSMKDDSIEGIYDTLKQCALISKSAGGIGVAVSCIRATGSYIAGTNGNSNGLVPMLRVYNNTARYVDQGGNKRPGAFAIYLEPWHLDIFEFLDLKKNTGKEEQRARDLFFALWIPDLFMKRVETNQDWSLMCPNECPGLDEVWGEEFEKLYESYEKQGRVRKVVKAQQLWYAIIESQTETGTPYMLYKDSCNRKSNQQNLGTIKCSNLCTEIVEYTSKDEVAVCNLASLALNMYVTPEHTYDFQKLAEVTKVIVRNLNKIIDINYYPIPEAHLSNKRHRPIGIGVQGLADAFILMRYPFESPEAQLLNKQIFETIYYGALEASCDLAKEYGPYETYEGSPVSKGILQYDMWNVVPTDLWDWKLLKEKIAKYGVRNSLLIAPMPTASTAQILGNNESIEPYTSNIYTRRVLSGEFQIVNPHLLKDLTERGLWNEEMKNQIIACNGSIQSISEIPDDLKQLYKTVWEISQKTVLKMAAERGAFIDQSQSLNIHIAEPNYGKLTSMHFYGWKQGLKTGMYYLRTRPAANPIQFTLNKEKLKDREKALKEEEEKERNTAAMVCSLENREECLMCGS
T1 sequence (G3I2K8 entry or part of it): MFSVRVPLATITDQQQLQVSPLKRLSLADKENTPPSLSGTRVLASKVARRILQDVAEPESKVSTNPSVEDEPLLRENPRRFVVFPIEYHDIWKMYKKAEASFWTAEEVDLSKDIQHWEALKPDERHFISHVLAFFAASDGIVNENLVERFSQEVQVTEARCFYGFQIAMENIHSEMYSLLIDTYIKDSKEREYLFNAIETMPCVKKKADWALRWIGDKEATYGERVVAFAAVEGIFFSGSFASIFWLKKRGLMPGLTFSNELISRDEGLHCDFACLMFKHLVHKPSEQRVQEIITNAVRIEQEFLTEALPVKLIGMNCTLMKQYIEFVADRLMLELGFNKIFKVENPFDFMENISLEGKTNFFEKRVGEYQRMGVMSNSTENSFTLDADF

## COc1c(OC)c(OC(C)=O)c2ccccc2c1OC(C)=O [2,3-dimethoxy-1,4-1,4-naphthalenediol diacetate]
[1]
  selective inhibition of the viral ribonucleotide reductase over the cellular ribonucleotide reductase: selective inhibition

## COc1c(OC)c(OC(C)=O)c2cc(Cl)ccc2c1OC(C)=O [6-Chloro-2,3-dimethoxy-1,4-naphthalenediol diacetate]
[2]
  IC50: > 250 µM
[1]
  selective inhibition of the viral ribonucleotide reductase over the cellular ribonucleotide reductase: selective inhibition
[1]; partially purified enzyme 65 μg, 54 μM CDP, 30 minutes at 37° C., pH 7.8, read-out: IC50, fifty percent reduction of the HSV-1 ribonucleotide reductase activity
  IC50: 31 µM

## COc1ccc2c(OC(C)=O)c(OC)c(OC)c(OC(C)=O)c2c1 [2,3,6-trimetoxy-1,4-naphthalenediol diacetate]
[1]
  selective inhibition of the viral ribonucleotide reductase over the cellular ribonucleotide reductase: selective inhibition
